The target of data set [1] is S-adenosylmethionine synthase isoform type-2 (Homo sapiens, UniProt P31153). Nature of the data set: Inhibition of recombinant MAT2A (unknown origin) expressed in baculovirus infected Sf9 insect cells using L-methionine as substrate preincubated for 15 mins followed by substrate addition measured after 60 mins by Kinase-Glo Luminescent assay. For orientation: Kinase-Glo reads ATP consumption through a luciferase reaction.

The test system of data set [2] is HCT-116. The data set is described as follows: Antiproliferative activity against human HCT-116 cells expressing MTAP-/- assessed as inhibition of cell proliferation incubated for 4 days by fluorescence based assay. It is filed as functional. Conditions: HCT-116, 96 h.
A short description of data set [3]: AUC in ICR mouse at 10 mg/kg, po via gavage measured for 0.083 to 24 hrs by LC-MS analysis. It is filed as ADME, organism-based. The settings on record: in vivo. Also on record: dose 10 mg/kg, time upper 24 hrs, time lower 0.083 hrs, route po.
The nature of data set [4]: Cmax in ICR mouse at 10 mg/kg, po via gavage measured for 0.083 to 24 hrs by LC-MS analysis. It is filed as ADME, organism-based. Also on record: time upper 24 hrs, dose 10 mg/kg, time lower 0.083 hrs, route po. The settings on record: in vivo.
Data set [5] is described as follows: Tmax in ICR mouse at 10 mg/kg, po via gavage measured for 0.083 to 24 hrs by LC-MS analysis. The class given is ADME, organism-based. The settings on record: in vivo, time 0.083-24 hrs.
A short description of data set [6]: Half life in ICR mouse at 10 mg/kg, po via gavage measured for 0.083 to 24 hrs by LC-MS analysis. The class given is ADME, organism-based. Conditions: in vivo, time 0.083-24 hrs.
Data set [7] deals with HCT-116. The data set is described as follows: Antiproliferative activity against human HCT-116 cells assessed as inhibition of cell proliferation incubated for 4 days by fluorescence based assay. It is filed as functional. Conditions: HCT-116, 96 h.
Data set [8] in a line: AUC in ICR mouse at 1 mg/kg, iv measured for 0.083 to 24 hrs by LC-MS analysis. The class given is ADME, organism-based. Also on record: time upper 24 hrs, time lower 0.083 hrs, dose 1 mg/kg, route iv. Conditions: in vivo.
Data set [9] is described as follows: Half life in ICR mouse at 1 mg/kg, iv measured for 0.083 to 24 hrs by LC-MS analysis. The class given is ADME, organism-based. Conditions: in vivo, time 0.083-24 hrs.
The nature of data set [10]: Volume of distribution at steady state in ICR mouse at 1 mg/kg, iv measured for 0.083 to 24 hrs by LC-MS analysis. The settings on record: in vivo, time 0.083-24 hrs, read-out: Vdss. The class given is ADME, organism-based.
Data set [11] is described as follows: Clearance in ICR mouse at 1 mg/kg, iv measured for 0.083 to 24 hrs by LC-MS analysis. The class given is ADME, organism-based. Conditions: in vivo, time 0.083-24 hrs.
Data set [12] can be described thus: Oral bioavailability in ICR mouse at 10 mg/kg administered via gavage measured for 0.083 to 24 hrs by LC-MS analysis. It is filed as ADME, organism-based. The settings on record: in vivo, time 0.083-24 hrs.
Data set [13] deals with Voltage-gated inwardly rectifying potassium channel KCNH2 (Homo sapiens, UniProt Q12809). The data set is described as follows: Inhibition of hERG potassium ion channel expressed in CHO cells at -80 mV holding potential treated for 2.5 mins by Q patch-clamp method. It is filed as toxicity, cell-based. (The hERG channel carries a current that helps repolarise heart muscle cells.)
Sequence of Voltage-gated inwardly rectifying potassium channel KCNH2 (Q12809 whole entry): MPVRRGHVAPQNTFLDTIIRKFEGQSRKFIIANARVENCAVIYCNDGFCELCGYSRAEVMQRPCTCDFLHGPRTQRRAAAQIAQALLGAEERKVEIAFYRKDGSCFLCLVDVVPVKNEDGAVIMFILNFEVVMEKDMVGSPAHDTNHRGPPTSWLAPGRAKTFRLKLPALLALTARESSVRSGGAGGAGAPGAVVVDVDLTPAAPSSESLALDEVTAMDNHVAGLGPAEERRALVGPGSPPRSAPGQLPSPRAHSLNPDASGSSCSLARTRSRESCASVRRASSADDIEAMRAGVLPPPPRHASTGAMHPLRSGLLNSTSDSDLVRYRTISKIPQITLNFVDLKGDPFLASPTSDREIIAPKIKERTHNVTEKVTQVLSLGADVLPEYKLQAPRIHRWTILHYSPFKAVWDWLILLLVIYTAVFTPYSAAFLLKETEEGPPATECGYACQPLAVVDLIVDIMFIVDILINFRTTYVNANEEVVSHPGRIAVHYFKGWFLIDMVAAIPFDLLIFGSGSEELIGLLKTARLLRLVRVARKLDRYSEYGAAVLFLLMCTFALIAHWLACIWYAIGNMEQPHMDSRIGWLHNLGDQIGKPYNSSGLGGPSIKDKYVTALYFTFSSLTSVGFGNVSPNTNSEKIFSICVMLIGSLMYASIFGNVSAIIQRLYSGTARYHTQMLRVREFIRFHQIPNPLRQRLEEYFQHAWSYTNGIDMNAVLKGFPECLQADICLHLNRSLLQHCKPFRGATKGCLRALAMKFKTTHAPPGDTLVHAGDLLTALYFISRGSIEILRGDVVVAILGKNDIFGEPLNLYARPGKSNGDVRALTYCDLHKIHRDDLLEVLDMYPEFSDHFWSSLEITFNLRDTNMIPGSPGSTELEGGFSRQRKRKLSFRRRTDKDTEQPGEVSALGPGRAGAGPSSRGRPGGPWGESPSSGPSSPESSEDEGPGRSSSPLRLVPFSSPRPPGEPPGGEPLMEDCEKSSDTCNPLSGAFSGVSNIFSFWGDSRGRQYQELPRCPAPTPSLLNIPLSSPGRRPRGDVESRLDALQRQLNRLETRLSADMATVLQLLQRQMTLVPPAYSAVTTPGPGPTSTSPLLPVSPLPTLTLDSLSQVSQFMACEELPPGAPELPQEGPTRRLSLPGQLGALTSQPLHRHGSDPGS

A short description of data set [14]: Apparent permeability of the compound across apical to basolateral side in MDCKII-MDR1 cells at 2 uM incubated for 2.5 hrs by LC-MS/MS analysis. The settings on record: dog, MDCK-MDR1. It is filed as ADME, cell-based, Canis lupus familiaris.
Data set [15] can be described thus: Intrinsic clearance in human liver microsomes at […] incubated for 5 to 60 mins in presence of NADPH by LC-MS analysis. The class given is ADME, Microsome. The settings on record: time 5-60 min.
A short description of data set [16]: Efflux ratio of apparent permeability from basolateral to apical side over apical to basolateral side in MDCKII-MDR1 cells at 2 uM incubated for 2.5 hrs by LC-MS/MS analysis. The class given is ADME, cell-based, Canis lupus familiaris. The settings on record: dog, MDCK-MDR1.
The nature of data set [17]: MRT in ICR mouse at 10 mg/kg, po via gavage measured for 0.083 to 24 hrs by LC-MS analysis. The class given is ADME, organism-based. The settings on record: in vivo, time 0.083-24 hrs.
Data set [18] concerns HCT-116. Nature of the data set: Antitumor activity against human HCT-116 cells expressing MTAP-/- xenografted in BALB/c mouse assessed as decrease in tumor volume at 50 mg/kg, po qd measured after 6 days. The class given is functional, organism-based. Conditions: time 6.0 day. (A xenograft is tissue or cells of one species grown in another, often human tumour cells in immunodeficient mice.)

For another data set, the target named is T1, Cytochrome P450 1A2 (Homo sapiens, UniProt P05177).
T1 sequence (P05177 whole entry): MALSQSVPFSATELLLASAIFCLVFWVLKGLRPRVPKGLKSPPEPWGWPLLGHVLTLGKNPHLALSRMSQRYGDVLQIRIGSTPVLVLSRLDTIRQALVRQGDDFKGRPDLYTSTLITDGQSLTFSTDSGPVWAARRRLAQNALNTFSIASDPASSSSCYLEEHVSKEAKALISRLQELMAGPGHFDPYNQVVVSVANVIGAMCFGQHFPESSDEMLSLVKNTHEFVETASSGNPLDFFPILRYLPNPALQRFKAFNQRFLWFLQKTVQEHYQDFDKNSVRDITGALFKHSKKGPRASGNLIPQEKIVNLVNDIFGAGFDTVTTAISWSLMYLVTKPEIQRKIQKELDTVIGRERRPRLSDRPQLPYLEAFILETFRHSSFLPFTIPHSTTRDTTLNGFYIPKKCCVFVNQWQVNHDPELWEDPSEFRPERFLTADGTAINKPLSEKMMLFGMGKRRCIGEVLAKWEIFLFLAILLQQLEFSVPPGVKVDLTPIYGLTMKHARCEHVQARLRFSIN
Nature of the data set: Inhibition of CYP1A2 in human liver microsomes using phenacetin as substrate preincubated for 10 mins followed by substrate addition measured after 10 mins in presence of NADPH by LC-MS analysis. It is filed as ADME, Microsome.

Another data set has as its target Cytochrome P450 3A4 (Homo sapiens, UniProt P08684). The data set is described as follows: Inhibition of CYP3A4 in human liver microsomes using midazolam as substrate preincubated for 10 mins followed by substrate addition measured after 10 mins in presence of NADPH by LC-MS analysis. The class given is ADME, Microsome.
The target of another data set is Cytochrome P450 2C9 (Homo sapiens, UniProt P11712). Nature of the data set: Inhibition of CYP2C9 in human liver microsomes using diclofenac as substrate preincubated for 10 mins followed by substrate addition measured after 10 mins in presence of NADPH by LC-MS analysis. The class given is ADME, Microsome.
Sequence of Cytochrome P450 2C9 (P11712 whole entry): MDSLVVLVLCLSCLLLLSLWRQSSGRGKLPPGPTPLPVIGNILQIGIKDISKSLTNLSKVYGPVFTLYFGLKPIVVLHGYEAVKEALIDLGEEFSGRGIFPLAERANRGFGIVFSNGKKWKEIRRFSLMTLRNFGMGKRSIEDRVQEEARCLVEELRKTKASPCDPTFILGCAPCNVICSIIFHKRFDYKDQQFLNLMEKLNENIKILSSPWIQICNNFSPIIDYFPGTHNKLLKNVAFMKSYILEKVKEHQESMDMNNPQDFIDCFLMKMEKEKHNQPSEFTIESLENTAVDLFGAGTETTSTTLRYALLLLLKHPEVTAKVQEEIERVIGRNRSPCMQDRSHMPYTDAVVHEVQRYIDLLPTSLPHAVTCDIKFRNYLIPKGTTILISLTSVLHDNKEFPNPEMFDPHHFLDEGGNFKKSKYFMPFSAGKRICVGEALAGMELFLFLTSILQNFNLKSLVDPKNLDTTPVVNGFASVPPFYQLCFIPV
Data set [19] is described as follows: Toxicity in BALB/c mouse xenografted with human HCT-116 cells expressing MTAP-/- assessed as drug tolerance at 50 mg/kg, po qd measured for 18 days. The class given is organism-based. The settings on record: in vivo, 432 h, time 18 day.
The subject of data set [20] is HCT-116. The data set is described as follows: Antitumor activity against human HCT-116 cells expressing MTAP-/- xenografted in BALB/c mouse assessed as tumor regression at 50 mg/kg, po qd measured after 18 days relative to control. It is filed as functional. Conditions: time 18 day.
In another data set the target is Cytochrome P450 2C19 (Homo sapiens, UniProt P33261). Nature of the data set: Inhibition of CYP2C19 in human liver microsomes using S-mephenytoin as substrate preincubated for 10 mins followed by substrate addition measured after 10 mins in presence of NADPH by LC-MS analysis. It is filed as ADME, Microsome.
Sequence of Cytochrome P450 2C19 (P33261 whole entry): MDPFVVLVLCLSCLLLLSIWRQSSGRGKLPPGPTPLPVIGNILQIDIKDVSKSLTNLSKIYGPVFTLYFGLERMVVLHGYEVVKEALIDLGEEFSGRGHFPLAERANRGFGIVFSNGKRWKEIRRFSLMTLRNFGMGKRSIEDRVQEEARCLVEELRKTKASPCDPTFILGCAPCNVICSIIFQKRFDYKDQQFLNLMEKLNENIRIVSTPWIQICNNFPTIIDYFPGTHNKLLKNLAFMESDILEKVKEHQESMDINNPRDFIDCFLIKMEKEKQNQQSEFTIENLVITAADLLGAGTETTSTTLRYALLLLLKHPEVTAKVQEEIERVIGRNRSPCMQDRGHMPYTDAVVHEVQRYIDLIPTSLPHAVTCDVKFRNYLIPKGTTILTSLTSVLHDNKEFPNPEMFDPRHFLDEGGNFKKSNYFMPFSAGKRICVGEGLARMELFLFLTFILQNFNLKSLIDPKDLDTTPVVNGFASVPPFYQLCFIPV
The target in data set [21] is UDP-glucuronosyltransferases (UGTs). Nature of the data set: Inhibition of UGT (unknown origin) preincubated for 10 mins followed by substrates addition measured after 10 mins by LC-MS analysis. The class given is ADME, protein assay, Homo sapiens.
Data set [22] in a line: Toxicity in BALB/c mouse xenografted with human HCT-116 cells expressing MTAP-/- assessed as body weight loss at 50 mg/kg, po qd measured for 18 days relative to control. It is filed as organism-based. Conditions: in vivo, 432 h, time 18 day.
The target in the next data set is Cytochrome P450 2D6 (Homo sapiens, UniProt P10635). The data set is described as follows: Inhibition of CYP2D6 in human liver microsomes using dextromethorphan as substrate preincubated for 10 mins followed by substrate addition measured after 10 mins in presence of NADPH by LC-MS analysis. The class given is ADME, Microsome.
Sequence of Cytochrome P450 2D6 (P10635 whole entry): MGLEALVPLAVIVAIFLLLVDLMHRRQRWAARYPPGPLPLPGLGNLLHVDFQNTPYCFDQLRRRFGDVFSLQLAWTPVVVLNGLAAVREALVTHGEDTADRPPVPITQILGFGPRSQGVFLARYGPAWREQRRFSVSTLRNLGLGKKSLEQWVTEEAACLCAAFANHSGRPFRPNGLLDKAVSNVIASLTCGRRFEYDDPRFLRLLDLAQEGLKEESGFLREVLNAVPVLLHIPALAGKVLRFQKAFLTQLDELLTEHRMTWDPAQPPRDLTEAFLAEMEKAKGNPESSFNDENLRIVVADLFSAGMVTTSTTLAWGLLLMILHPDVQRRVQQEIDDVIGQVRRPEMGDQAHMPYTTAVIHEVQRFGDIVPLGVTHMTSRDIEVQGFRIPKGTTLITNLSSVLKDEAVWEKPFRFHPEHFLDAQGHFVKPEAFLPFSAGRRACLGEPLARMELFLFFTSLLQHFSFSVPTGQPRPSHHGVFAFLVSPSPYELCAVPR
Data set [23] deals with HCT-116. Nature of the data set: Antitumor activity against human HCT-116 cells expressing MTAP-/- xenografted in BALB/c mouse assessed as tumor growth inhibition at 50 mg/kg, po qd measured for 18 days relative to control. It is filed as functional. Conditions: HCT-116, 432 h, time 18 day, read-out: TGI.

The values that follow come from ChEMBL document CHEMBL5380836, “Design and Structural Optimization of Methionine Adenosyltransferase 2A (MAT2A) Inhibitors with High In Vivo Potency and Oral Bioavailability” (J Med Chem, 2023).

Active and inactive are the calls of the source. No cut-off for these calls is given here. Bounds are passed on as bounds.

Sequence of S-adenosylmethionine synthase isoform type-2 (P31153 whole entry, canonical isoform): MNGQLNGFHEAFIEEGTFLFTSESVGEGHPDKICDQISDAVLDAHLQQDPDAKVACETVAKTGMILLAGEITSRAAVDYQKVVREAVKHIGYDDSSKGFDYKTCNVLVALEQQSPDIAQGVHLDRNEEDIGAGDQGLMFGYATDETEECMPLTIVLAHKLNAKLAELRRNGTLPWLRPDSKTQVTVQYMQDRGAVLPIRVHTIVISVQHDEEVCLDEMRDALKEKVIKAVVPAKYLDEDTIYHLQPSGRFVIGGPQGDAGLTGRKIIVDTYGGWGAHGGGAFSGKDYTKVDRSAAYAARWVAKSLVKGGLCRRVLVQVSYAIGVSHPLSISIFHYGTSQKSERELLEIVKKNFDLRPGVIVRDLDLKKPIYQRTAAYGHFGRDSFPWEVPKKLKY
Sequence of Cytochrome P450 3A4 (P08684 whole entry): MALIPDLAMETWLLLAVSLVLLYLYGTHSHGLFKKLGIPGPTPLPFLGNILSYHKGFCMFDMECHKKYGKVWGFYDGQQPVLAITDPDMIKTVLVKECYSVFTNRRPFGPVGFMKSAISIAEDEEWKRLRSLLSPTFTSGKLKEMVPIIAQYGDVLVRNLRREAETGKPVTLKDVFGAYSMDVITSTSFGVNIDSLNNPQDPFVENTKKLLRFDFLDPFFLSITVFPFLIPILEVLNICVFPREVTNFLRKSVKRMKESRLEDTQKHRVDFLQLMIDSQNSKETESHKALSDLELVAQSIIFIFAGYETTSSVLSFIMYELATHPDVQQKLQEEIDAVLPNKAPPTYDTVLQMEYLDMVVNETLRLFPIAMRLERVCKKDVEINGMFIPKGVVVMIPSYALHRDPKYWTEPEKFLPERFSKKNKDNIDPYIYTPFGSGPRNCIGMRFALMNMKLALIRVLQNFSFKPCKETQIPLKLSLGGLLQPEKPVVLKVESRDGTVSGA

What is called IC50 is the concentration at which inhibition is half-maximal. As a reminder, the AUC is the area under the concentration-time curve, a measure of exposure. The Cmax is the maximum level reached in the sampled fluid or tissue. As usually defined, the Tmax is the time from dosing to the highest level. One may read the half-life as how long it takes for the measured level to halve. A low value points to rapid decline. `CCNc1ncc2cc(-c3ccc4nc5n(c4c3)CCN(C)C5)c(=O)n(-c3ccc(OC(F)F)cc3)c2n1`: the IC50 in data set [1] was determined as 14 nM; with HCT-116 [2], 42 nM. The compound further displayed an AUC in data set [3] of 3200 ng·h/mL. This compound showed a Cmax in data set [4] of 1050 ng/mL. Besides, in [5], the Tmax was 0.33 h. Moreover, in [6], the half-life was 2.9 h.

For `CN1CCn2c(nc3ccc(-c4cc5cnc(C6CC6)nc5n(-c5ccc(OC(F)F)cc5)c4=O)cc32)C1`, the IC50 in data set [1] was found to be 14 nM; in the data set on HCT-116 [2], 34 nM. The AUC in data set [3] was determined as 11400 ng·h/mL. In [4], this compound gave a Cmax of 1740 ng/mL. The Tmax in data set [5] was determined as 0.5 h. This compound also showed a half-life in data set [6] of 4 h.

For the compound `CCOc1ccc2c(=O)n(-c3ccc4nn5c(c4c3)CN(C)CC5)c(=O)n(-c3ccc(OC(F)F)cc3)c2n1`, the IC50 in the data set on HCT-116 [7] is above 10000 nM; in data set [1] it was 28 nM; with HCT-116 [2], 82 nM.

As usually defined, the clearance is a measure of how efficiently the substance is removed, as volume per time. A higher clearance goes with efficient removal. Take `CCOc1ncc2cc(-c3ccc4nc5n(c4c3)CCN(C)C5)c(=O)n(-c3ccc(OC(F)F)cc3)c2n1`: the AUC in [8] was 990 ng·h/mL; in data set [3], 11500 ng·h/mL. Besides, the IC50 was 18 nM in data set [1] and 52 nM in the data set on HCT-116 [2]. Also, the half-life in data set [9] was 2.4 h; in data set [6], 3.3 h. The Vd in data set [10] amounted to 2.18 L/kg. The compound further yielded a clearance in data set [11] of 17.1 mL/min/kg. Further, in [4], the Cmax is 2300 ng/mL. Moreover, the Tmax in data set [5] came out at 0.83 h. The bioavailability in data set [12] was 116%.

A word on the Papp A→B: it is the apparent permeability from the apical to the basolateral side of a cell layer. Usually efflux ratio stands for a quotient of directional permeabilities that is used to spot active efflux. One may read the MRT as a mean duration of stay, worked out from the concentration-time curve. Regarding `CCOc1ccc2c(=O)n(-c3ccc4nc5n(c4c3)CCN(C)C5)c(=O)n(-c3ccc(OC(F)F)cc3)c2n1`, the IC50 in data set [13] was above 50000 nM; in the data set on HCT-116 [7], above 10000 nM; in [1], 26 nM; with HCT-116 [2], 75 nM; at Cytochrome P450 1A2 it was above 50000 nM; on Cytochrome P450 3A4 it was 36900 nM. Besides, the IC50 was 39200 nM on Cytochrome P450 2C9, 29000 nM on Cytochrome P450 2C19, above 50000 nM in data set [21] and above 50000 nM on Cytochrome P450 2D6. Further, the Papp A→B at 2.5 h, 2 µM in data set [14] is 2.9 ×10⁻⁶ cm/s. The CLint in [15] turned out to be 20.1 µL/min/mg. In [16], the efflux ratio at 2.5 h, 2 µM is 8. The AUC in data set [3] was found to be 41200 ng·h/mL. Also, the MRT in [17] was determined as 4.71 h. Further, the result in the data set on HCT-116 [18] was Active. The compound further had a Cmax in data set [4] of 6730 ng/mL. For the same compound, the Tmax in data set [5] came to 0.67 h. The Activity entry is “Non-Toxic” in data set [19], -52% in the data set with HCT-116 [20] and 12% in data set [22]. The compound further showed a half-life in data set [6] of 2.98 h.

On to `COc1ccc(-c2c(Nc3ccccn3)[nH]c3c(C4=CCCCC4)c(-c4ccccc4)nn3c2=O)cc1`, for which the inhibition in vivo at 50 mg/kg with HCT-116 [23] was determined as 34%. For the same compound, the IC50 in the data set with HCT-116 [2] was found to be 244 nM.

Consider `CCOc1ncc2cc(-c3ccc4c(c3)OCC3(CCN(C)CC3)O4)c(=O)n(-c3ccc(OC(F)F)cc3)c2n1`, for which the values for the IC50 (in [1]; with HCT-116 [2]) were above 1000 nM and above 10000 nM, respectively.
